Laboratory results as given in US10308643B2, “Heterocyclic compound” (Takeda Pharmaceutical Company Limited, priority 2015, dated 2019).

Legend:
Assay type in all cases: biochemical
HDAC6 enzyme = molecular target: T1, HDAC6 enzyme (Homo sapiens, UniProt Q9UBN7); experiment: HDAC1/6 Enzyme Inhibitory Assay (HDAC-Glo I/II Assay kit), HDAC6; settings: 1 μM test compound, wells without enzyme = 100% inhibition; for inhibition at 1 µM: read-out: HDAC6 inhibitory rate (%) (1 μM)
T1 construct: transducing full length HDAC1 and HDAC6 genes into Sf-9 insect cells; GST; purchased SignalChem; host or cells: Sf-9 insect cells
T1 sequence (Q9UBN7 1-1215): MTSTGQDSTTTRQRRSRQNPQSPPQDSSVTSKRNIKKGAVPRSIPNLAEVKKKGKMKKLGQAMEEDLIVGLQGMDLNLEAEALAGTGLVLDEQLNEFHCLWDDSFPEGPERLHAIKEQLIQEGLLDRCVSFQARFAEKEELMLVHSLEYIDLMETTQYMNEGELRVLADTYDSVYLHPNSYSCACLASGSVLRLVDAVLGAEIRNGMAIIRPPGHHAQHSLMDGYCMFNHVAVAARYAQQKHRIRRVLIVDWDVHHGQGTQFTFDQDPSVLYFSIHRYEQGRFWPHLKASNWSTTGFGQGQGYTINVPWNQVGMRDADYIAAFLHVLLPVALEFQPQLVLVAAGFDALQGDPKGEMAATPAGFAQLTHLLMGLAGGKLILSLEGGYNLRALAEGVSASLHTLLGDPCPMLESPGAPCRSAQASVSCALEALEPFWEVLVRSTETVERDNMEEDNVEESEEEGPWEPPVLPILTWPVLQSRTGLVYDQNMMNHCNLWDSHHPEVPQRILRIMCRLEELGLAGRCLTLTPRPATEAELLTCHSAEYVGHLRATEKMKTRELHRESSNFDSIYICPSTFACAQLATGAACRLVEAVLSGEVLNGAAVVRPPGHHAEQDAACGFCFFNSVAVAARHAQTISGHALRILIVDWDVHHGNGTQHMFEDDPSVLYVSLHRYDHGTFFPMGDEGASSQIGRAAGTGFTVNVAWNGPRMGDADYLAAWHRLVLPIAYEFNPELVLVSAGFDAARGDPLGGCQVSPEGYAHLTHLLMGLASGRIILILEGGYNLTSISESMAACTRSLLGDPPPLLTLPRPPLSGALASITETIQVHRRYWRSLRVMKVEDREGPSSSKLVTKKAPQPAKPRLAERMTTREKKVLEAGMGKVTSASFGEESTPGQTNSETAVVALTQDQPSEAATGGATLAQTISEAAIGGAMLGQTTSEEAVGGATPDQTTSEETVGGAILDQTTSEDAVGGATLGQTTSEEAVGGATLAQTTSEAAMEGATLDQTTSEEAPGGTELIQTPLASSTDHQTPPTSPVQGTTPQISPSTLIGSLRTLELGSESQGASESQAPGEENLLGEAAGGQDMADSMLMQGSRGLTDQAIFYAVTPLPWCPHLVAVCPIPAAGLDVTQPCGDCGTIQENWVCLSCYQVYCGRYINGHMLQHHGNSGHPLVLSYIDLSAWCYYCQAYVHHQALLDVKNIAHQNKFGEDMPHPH
How it was run: (§1)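 Full-length human HDAC1 or HDAC6, GST-purified from Sf-9 cells, was preincubated with compound for 60 min at room temperature in Tris-HCl pH 7.5 buffer with MgCl2, KCl, NaCl, glutathione and Tween-20. HDAC-Glo I/II substrate-developer was then added and reacted for 20 min before luminescence was read. Inhibition was set relative to no-enzyme wells as 100% inhibition.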

HDAC1 enzyme = molecular target: T2, HDAC1 enzyme (Homo sapiens, UniProt Q13547); experiment: HDAC1/6 Enzyme Inhibitory Assay (HDAC-Glo I/II Assay kit), HDAC1; settings: 1 μM test compound, wells without enzyme = 100% inhibition; for inhibition at 1 µM: read-out: HDAC1 inhibitory rate (%) (1 μM)
T2 construct: transducing full length HDAC1 and HDAC6 genes into Sf-9 insect cells; GST; purchased SignalChem; host or cells: Sf-9 insect cells
T2 sequence (Q13547 whole entry): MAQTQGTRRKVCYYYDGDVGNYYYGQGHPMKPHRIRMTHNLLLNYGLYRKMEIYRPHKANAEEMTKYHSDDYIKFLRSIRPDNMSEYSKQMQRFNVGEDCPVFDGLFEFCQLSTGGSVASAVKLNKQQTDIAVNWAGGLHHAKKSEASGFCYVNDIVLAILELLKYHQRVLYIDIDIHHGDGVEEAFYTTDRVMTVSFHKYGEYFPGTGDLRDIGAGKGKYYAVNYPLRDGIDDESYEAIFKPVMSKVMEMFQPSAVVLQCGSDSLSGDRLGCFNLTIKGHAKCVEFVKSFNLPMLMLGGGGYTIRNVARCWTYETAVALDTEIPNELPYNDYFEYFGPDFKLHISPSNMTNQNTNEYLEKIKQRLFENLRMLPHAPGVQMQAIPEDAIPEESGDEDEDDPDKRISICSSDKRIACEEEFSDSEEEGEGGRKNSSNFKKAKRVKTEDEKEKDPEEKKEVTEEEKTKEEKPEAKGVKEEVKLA
How it was run: as §1

HDAC9 enzyme = molecular target: T3, HDAC9 enzyme (Homo sapiens, UniProt Q9UKV0); experiment: HDAC9 Enzyme Inhibitory Assay (HDAC-Glo class IIa); settings: 1 μM test compound, wells without enzyme = 100% inhibition; for inhibition at 1 µM: read-out: HDAC9 inhibitory rate (%) (1 μM)
T3 construct: transducing full length HDAC9 gene into Sf-9 insect cells; made in house; host or cells: Sf-9 insect cells
T3 sequence (Q9UKV0 whole entry, species assumed): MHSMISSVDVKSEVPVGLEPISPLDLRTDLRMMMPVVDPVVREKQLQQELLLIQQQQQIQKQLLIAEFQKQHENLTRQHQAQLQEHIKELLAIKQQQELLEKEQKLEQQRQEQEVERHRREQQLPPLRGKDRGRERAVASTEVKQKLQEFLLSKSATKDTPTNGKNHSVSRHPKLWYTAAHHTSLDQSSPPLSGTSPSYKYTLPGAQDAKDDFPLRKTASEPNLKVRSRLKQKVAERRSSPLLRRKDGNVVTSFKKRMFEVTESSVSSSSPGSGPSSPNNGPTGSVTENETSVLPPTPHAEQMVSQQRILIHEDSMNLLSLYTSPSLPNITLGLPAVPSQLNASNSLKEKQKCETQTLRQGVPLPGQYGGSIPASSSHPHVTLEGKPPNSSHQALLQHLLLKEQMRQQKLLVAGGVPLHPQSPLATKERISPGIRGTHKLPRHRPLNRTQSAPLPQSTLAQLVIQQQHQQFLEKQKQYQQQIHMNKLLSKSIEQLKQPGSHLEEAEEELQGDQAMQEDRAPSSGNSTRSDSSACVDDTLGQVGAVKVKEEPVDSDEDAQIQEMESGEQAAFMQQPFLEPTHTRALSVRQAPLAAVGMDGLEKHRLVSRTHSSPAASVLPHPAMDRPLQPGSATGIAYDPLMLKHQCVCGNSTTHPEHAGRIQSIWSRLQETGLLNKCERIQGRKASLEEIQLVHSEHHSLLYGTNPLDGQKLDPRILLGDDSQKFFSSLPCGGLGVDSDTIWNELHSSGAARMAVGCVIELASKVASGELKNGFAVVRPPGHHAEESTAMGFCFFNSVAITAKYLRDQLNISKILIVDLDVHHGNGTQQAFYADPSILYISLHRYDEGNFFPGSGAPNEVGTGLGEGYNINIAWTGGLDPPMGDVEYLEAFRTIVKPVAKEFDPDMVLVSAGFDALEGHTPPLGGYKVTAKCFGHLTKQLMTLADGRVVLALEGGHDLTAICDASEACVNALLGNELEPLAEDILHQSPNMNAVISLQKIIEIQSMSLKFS
How it was run: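 Luminescent HDAC-Glo class IIa readout after a 20 min room-temperature reaction; relative inhibition referenced to enzyme-free wells as 100%. Test compound first preincubated 60 min with Sf-9-expressed, Ni-NTA-purified full-length HDAC9 in pH 7.5 Tris buffer containing 135 mM NaCl, 0.6 mM glutathione and 0.01% Tween-20.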

Structure (SMILES) | inhibition at 1 µM (HDAC6 enzyme) [%] | inhibition at 1 µM (HDAC1 enzyme) [%] | inhibition at 1 µM (HDAC9 enzyme) [%] | HDAC6 inhibitory rate (%) (1 μM) (HDAC6 enzyme) | HDAC1 inhibitory rate (%) (1 μM) (HDAC1 enzyme) | HDAC9 inhibitory rate (%) (1 μM) (HDAC9 enzyme)
O=C(N[C@@H]1CCCC[C@H]1N1Cc2ccc(-c3noc(C(F)(F)F)n3)cc2C1=O)N1CCC1 [Example 159, N-((1R,2R)-2-(1-oxo-6-(5-(trifluoromethyl)-1,2,4-oxadiazol-3-yl)-1,3-dihydro-2H-isoindol-2-yl)cyclohexyl)azetidine-1-carboxamide] | 98 | 5 | 39 | – | – | –
N#CC12CC(C(=O)N[C@@H]3CCCC[C@H]3N3Cc4ccc(-c5noc(C(F)(F)F)n5)cc4C3=O)(C1)C2 [Example 160, 3-cyano-N-((1R,2R)-2-(1-oxo-6-(5-(trifluoromethyl)-1,2,4-oxadiazol-3-yl)-1,3-dihydro-2H-isoindol-2-yl)cyclohexyl)bicyclo[1.1.1]pentane-1-carboxamide] | 99 | 11 | 38 | – | – | –
O=C(N[C@@H]1CCCC[C@H]1N1Cc2ccc(-c3noc(C(F)(F)F)n3)cc2C1=O)N1CC2(COC2)C1 [Example 161, N-((1R,2R)-2-(1-oxo-6-(5-(trifluoromethyl)-1,2,4-oxadiazol-3-yl)-1,3-dihydro-2H-isoindol-2-yl)cyclohexyl)-2-oxa-6-azaspiro[3.3]heptane-6-carboxamide] | 76 | 1 | 20 | – | – | –
O=C(N[C@@H]1CCCC[C@H]1N1Cc2ccc(-c3noc(C(F)(F)F)n3)cc2C1=O)N1CC(F)(F)C1 [Example 162, 3,3-difluoro-N-((1R,2R)-2-(1-oxo-6-(5-(trifluoromethyl)-1,2,4-oxadiazol-3-yl)-1,3-dihydro-2H-isoindol-2-yl)cyclohexyl)azetidine-1-carboxamide] | 99 | 5 | 34 | – | – | –
COC1CN(C(=O)N[C@@H]2CCCC[C@H]2N2Cc3ccc(-c4noc(C(F)(F)F)n4)cc3C2=O)C1 [Example 163, 3-methoxy-N-((1R,2R)-2-(1-oxo-6-(5-(trifluoromethyl)-1,2,4-oxadiazol-3-yl)-1,3-dihydro-2H-isoindol-2-yl)cyclohexyl)azetidine-1-carboxamide] | 95 | 1 | 32 | – | – | –
O=C(N[C@@H]1CCCC[C@H]1N1Cc2ccc(-c3noc(C(F)(F)F)n3)cc2C1=O)N1CC2CC(C1)O2 [Example 164, N-((1R,2R)-2-(1-oxo-6-(5-(trifiuoromethyl)-1,2,4-oxadiazol-3-yl)-1,3-dihydro-2H-isoindol-2-yl)cyclohexyl)-6-oxa-3-azabicyclo[3.1.1]heptane-3-carboxamide] | 97 | 1 | 18 | – | – | –
O=C(NC1COC1)N[C@@H]1CCCC[C@H]1N1Cc2ccc(-c3noc(C(F)(F)F)n3)cc2C1=O [Example 165, 1-oxetan-3-yl-3-((1R,2R)-2-(1-oxo-6-(5-(trifluoromethyl)-1,2,4-oxadiazol-3-yl)-1,3-dihydro-2H-isoindol-2-yl)cyclohexyl)urea] | 96 | 6 | 43 | – | – | –
CC(C)N(C(=O)N[C@@H]1CCCC[C@H]1N1Cc2ccc(-c3noc(C(F)(F)F)n3)cc2C1=O)C(C)C [Example 166, 1,1-diisopropyl-3-((1R,2R)-2-(1-oxo-6-(5-(trifluoromethyl)-1,2,4-oxadiazol-3-yl)-1,3-dihydro-2H-isoindol-2-yl)cyclohexyl)urea] | 100 | 12 | 36 | – | – | –
O=C(N[C@@H]1CCCC[C@H]1N1Cc2ccc(-c3noc(C(F)(F)F)n3)cc2C1=O)N1C2CCCC1COC2 [Example 167, N-((1R,2R)-2-(1-oxo-6-(5-(trifluoromethyl)-1,2,4-oxadiazol-3-yl)-1,3-dihydro-2H-isoindol-2-yl)cyclohexyl)-3-oxa-9-azabicyclo[3.3.1]nonane-9-carboxamide] | 101 | 7 | 34 | – | – | –
O=C(N[C@@H]1CCCC[C@H]1N1Cc2ccc(-c3noc(C(F)(F)F)n3)cc2C1=O)N1CCS(=O)(=O)CC1 [Example 168, N-((1R,2R)-2-(1-oxo-6-(5-(trifluoromethyl)-1,2,4-oxadiazol-3-yl)-1,3-dihydro-2H-isoindol-2-yl)cyclohexyl)thiomorpholine-4-carboxamide 1,1-dioxide] | 96 | 5 | 23 | – | – | –
O=C(N[C@@H]1CCCC[C@H]1N1Cc2ccc(-c3noc(C(F)(F)F)n3)cc2C1=O)N1CCC(F)(F)C1 [Example 169, 3,3-difluoro-N-((1R,2R)-2-(1-oxo-6-(5-(trifluoromethyl)-1,2,4-oxadiazol-3-yl)-1,3-dihydro-2H-isoindol-2-yl)cyclohexyl)pyrrolidine-1-carboxamide] | 98 | 10 | 40 | – | – | –
CC1(C(=O)N[C@@H]2CCCC[C@H]2N2Cc3ccc(-c4noc(C(F)(F)F)n4)cc3C2=O)CC1(F)F (stereo partly drawn) [Example 170, 2,2-difluoro-1-methyl-N-((1R,2R)-2-(1-oxo-6-(5-(trifluoromethyl)-1,2,4-oxadiazol-3-yl)-1,3-dihydro-2H-isoindol-2-yl)cyclohexyl) cyclopropanecarboxamide] | – | – | – | 100 | 16 | 64
CC1(C(=O)N[C@@H]2CCCC[C@H]2N2Cc3ccc(-c4noc(C(F)(F)F)n4)cc3C2=O)CC1(F)F (stereo partly drawn) [Example 171, 2,2-difluoro-1-methyl-N-((1R,2R) 2-(1-oxo-6-(5-(trifluoromethyl)-1,2,4-oxadiazol-3-yl)-1,3-dihydro-2H-isoindol-2-yl)cyclohexyl)cyclopropanecarboxamide] | – | – | – | 98 | 9 | 67
O=C(N[C@@H]1CCOC[C@H]1N1Cc2ccc(-c3noc(C(F)(F)F)n3)cc2C1=O)[C@@H]1CC1(F)F [Example 172, (1S)-2,2-difluoro-N-((3S,4R)-3-(1-oxo-6-(5-(trifluoromethyl)-1,2,4-oxadiazol-3-yl)-1,3-dihydro-2H-isoindol-2-yl)tetrahydro-2H-pyran-4-yl)cyclopropanecarboxamide] | 99 | 7 | 49 | – | – | –
O=C1c2cc(-c3noc(C(F)(F)F)n3)ccc2CN1[C@@H]1CCCC[C@H]1NC(=O)C1(O)CCC1 [Example 173, 1-hydroxy-N-((1R,2R)-2-(1-oxo-6-(5-(trifluoromethyl)-1,2,4-oxadiazol-3-yl)-1,3-dihydro-2H-isoindol-2-yl)cyclohexyl) cyclobutanecarboxamide] | 100 | 5 | 42 | – | – | –
CC1(C(=O)N[C@@H]2CCCC[C@H]2N2Cc3ccc(-c4noc(C(F)(F)F)n4)cc3C2=O)CCC1 [Example 174, 1-methyl-N-((1R,2R)-2-(1-oxo-6-(5-(trifluoromethyl)-1,2,4-oxadiazol-3-yl)-1,3-dihydro-2H-isoindol-2-yl)cyclohexyl)cyclobutanecarboxamide] | 90 | 8 | 60 | – | – | –
